Source: patent US5179084A, “Antiviral phosphoric acid esters of oxetanocins” (Nippon Kayaku Kabushiki Kaisha, priority 1989, dated 1993)
In brackets after ≈: the same amount, converted by molar mass. Blank lines part the entries; values can stand above or below the compound they belong to.

Tests used:
[1] = tested on: HIV; assay: Anti-HIV activity in MT-4 cells, development of virus antigen by indirect fluorescent antibody method; format: cell-based; conditions: for EC50: Human immunodeficiency virus 1, MT4, 96 h, MT-4 cells, 4 days culture after HIV infection, read-out: Development of Virus Antigen Activity ED50; for anti-HIV activity (in words): summary of results
Procedure: MT-4 cell (about 10,000 cells/ml) was added to a 24 well tray, and then 100 μl of a solution containing a predetermined quantity of Compound No. 1 of the present invention was added. After culturing at 37° C. for 5 hours in 5% (v/v) carbon dioxide incubator, 10^3 to 10^4 infection units of HIV was added and cultured for 4 days. Then, a part of the cultured fluid was coated onto a slide glass and immobilized with acetone, after which development of virus antigen was observed by indirect fluorescent antibody method.
As the primary antibody of the fluorescent antibody method, a serum of AIDS patient was used. As its secondary antibody, FITC-labelled […] was used.

[2] = biological target: T1, reverse transcriptase (RTase) of HIV (Human immunodeficiency virus type 1 group M subtype B, UniProt P04585); assay: Inhibition of HIV reverse transcriptase (RTase), 3H-AMP uptake; format: biochemical, human immunodeficiency virus (HTLV-IIIB)
T1 construct: Measurement of Activity of Reverse Transcriptase (RTase) of HIV; endogenous in cells; host or cells: MOLT-4/HTLV-IIIB cells persistently infected with HIV (viral protein made by the infection; crude lysate)
Procedure: Measurement of Activity of Reverse Transcriptase (RTase) of HIV
MOLT-4/HTLV-IIIB cells which were persistently infected with HIV were destroyed with Triton X-100 or the like to prepare crude enzyme (RTase).
Using poly(dT) and oligo(dA) as template primers, the following reaction solution was used.
2. Composition of reaction solution
______________________________________
5 mg/ml Bovine serum albumin
1M Tris-HCl buffer (pH 7.8)
100 mM Dithiothreitol 2.0
5 units/ml Oligo(dA) 4.0
Uptake of ^3 H-AMP in the acid-insoluble fraction in the reaction solution under the above conditions was determined by a liquid scintillation counter.

[3] = tested on: cytomegalovirus (A0169 strain); assay: Anti-cytomegalovirus activity, plaque formation in human fetal fibroblasts; format: cell-based; conditions: Human betaherpesvirus 5, Fibroblast, 240 h, 100 PFU, 37° C., 10 days, read-out: Anti-cytomegalovirus Activity ED50 (50% inhibitory value)
Procedure: Anti-cytomegalovirus activity was determined by the following manner. A 35 mm.PHI. dish containing a single layer of human fetal fibroblasts was infected with 100 PFU (plaque forming units) of cytomegalovirus (A0169 strain). After adsorption for one hour, a medium (0.5% agarose, 2% fetal calf serum) containing a varied concentration of the compound of the present invention was superposed thereon, and the whole was cultured at 37° C. for 10 days in 5% (v/v) carbon dioxide incubator, after which the formation of plaque was measured. The results are shown in Table 3 in terms of 50% inhibitory value (ED50).

[4] = tested on: DNA virus such as cytomegalovirus, hepatitis B virus, herpes virus; assay: Antiviral activity (summary statement); conditions: summary of results
[5] = biological target: HBV-intrinsic DNA polymerase (Hepatitis B virus adr4, UniProt P12933); assay: Inhibitory activity on HBV-intrinsic DNA polymerase, HBV core particles from HB611 cells; format: biochemical
Procedure: 1. Partial purification of HBV core particles
After HB611 cells were homogenized with buffer solution for extraction shown below, the centrifugal supernatant (14000 rpm, 0° C., 30 minutes) was overlaid on 30% saccharose-containing buffer solution for extraction, which was subjected to supercentrifugation (35000 rpm, 4° C., 18 hours) to give crude core particle precipitates. The crude core particles were suspended in the buffer solution for extraction and purified by cesium chloride density-gradient centrifugation method to give partially purified core particles showing a density of 1.30 to 1.35 g/ml.
Buffer solution for extraction:
2-mercaptoethanol/1 mM PMSF): 10 mM
Tris-hydrochloride (pH 7.4), 1 mM EDTA, 10 mM
2. Measurement of HBV-intrinsic polymerase activity
The partially purified core particles were added to the reaction solution shown below. After incubating at 37° C. for 2 hours in the presence of Compound No. 3 in various concentrations, dCTP was added thereto in a final concentration of 1 mM. After incubation at 37° C. for an additional an hour, proteinase K, SDS, EDTA and tRNA were added thereto in final concentrations of 0.5 mg/ml, 1%, 10 mM and 200 μg/ml, respectively, followed by incubation at 45° C. for 2 hours. Thereafter HBV-DNA was purified by phenolchloroform extraction and ethanol precipitation and then subjected to electrophoresis with 1.5% agarose. Radioactive uptake in HBV-DNA was determined by autoradiography. The autoradiogram was scanned by a densitometer to calculate the inhibitory activity of Compound No. 3 against HBV-DNA polymerase.
Reaction solution: containing 50 mM Tris-hydrochloride
(pH 7.4), 30 mM magnesium chloride, 0.1 M
ammonium chloride, 0.2% 2-mercaptoethanol,
200 μM each of dATP, dGTP and dTTP

HBV-intrinsic DNA polymerase, sequence (P12933 whole entry): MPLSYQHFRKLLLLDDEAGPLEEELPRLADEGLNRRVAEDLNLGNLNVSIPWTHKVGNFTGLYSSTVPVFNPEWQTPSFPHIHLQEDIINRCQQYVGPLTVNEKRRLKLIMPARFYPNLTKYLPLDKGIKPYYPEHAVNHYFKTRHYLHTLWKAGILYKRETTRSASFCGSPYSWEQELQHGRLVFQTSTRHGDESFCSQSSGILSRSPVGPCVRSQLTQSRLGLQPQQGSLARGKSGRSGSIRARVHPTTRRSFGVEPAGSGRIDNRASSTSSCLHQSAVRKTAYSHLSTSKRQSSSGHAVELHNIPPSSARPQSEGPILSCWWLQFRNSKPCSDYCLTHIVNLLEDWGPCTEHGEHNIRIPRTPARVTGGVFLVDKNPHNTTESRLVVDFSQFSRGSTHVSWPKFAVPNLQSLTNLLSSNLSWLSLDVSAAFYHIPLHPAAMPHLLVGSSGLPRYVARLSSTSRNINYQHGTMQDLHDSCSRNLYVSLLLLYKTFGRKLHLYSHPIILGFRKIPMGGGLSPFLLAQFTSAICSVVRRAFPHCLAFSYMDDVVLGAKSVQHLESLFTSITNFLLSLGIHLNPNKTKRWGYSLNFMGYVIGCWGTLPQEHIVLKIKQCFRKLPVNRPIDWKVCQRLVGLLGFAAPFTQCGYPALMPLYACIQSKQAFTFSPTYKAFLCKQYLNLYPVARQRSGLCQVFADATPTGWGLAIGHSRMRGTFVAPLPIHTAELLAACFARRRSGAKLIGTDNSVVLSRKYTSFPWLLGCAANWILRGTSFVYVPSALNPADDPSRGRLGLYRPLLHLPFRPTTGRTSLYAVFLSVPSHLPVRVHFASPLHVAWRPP

Compound: Nc1ncnc2c1ncn2[C@H]1C[C@@H](COP(=O)(O)O)O1 [Compound No. 6]
EC50 [1]: 0.007 µg/mL (≈ 0.0232 µM)
anti-HIV activity (in words) [1]: excellent anti-HIV activity

Compound: Nc1ncnc2c1ncn2[C@@H]1O[C@H](COP(=O)(O)OP(=O)(O)OP(=O)(O)O)[C@H]1CO [Compound No. 2]
inhibition at 4.17 µM ([2]; 4.17 μM, 37° C., 1 hour): 1%
inhibition at 12.5 µM ([2]; 12.5 μM, 37° C., 1 hour): 33.9%
inhibition at 125 µM ([2]; 125 μM, 37° C., 1 hour): 93%
inhibition at 417 µM ([2]; 417 μM, 37° C., 1 hour): 98.8%
inhibition at 42.7 µM ([2]; read-out: RTase Inhibition (%)): 69.4%
reverse transcriptase inhibitory action of HIV (in words) ([2]; summary of results): shows reverse transcriptase inhibitory action of HIV

Compound: Nc1nc2c(ncn2[C@@H]2O[C@H](COP(=O)(O)O)[C@H]2CO)c(=O)[nH]1 [Compound No. 5]
antiviral activity against DNA virus (in words) [4]: excellent antiviral activity against DNA virus
EC50 [3]: 0.4 µg/mL (≈ 1.15 µM)

Further lines, with some results ahead:

EC50 [1]: 0.1 µg/mL (≈ 0.302 µM)
Compound: Nc1ncnc2c1ncn2[C@@H]1O[C@H](COP(=O)(O)O)[C@H]1CO [Compound No. 1]
anti-HIV activity (in words) [1]: excellent anti-HIV activity
EC50 [3]: 1.85 µg/mL (≈ 5.59 µM)

inhibition at 100 µM ([5]; 100 μM, read-out: Inhibition Rate (HBV-DNA polymerase)): 50.7%
inhibition at 200 µM ([5]; 200 μM, read-out: Inhibition Rate (HBV-DNA polymerase)): 88.8%
inhibition at 400 µM ([5]; 400 μM, read-out: Inhibition Rate (HBV-DNA polymerase)): 96.8%
Compound: Nc1nc2c(ncn2[C@@H]2O[C@H](COP(=O)(O)OP(=O)(O)OP(=O)(O)O)[C@H]2CO)c(=O)[nH]1 [Compound No. 3]
inhibition of DNA polymerase of DNA virus (in words) ([5]; summary of results, 'the aforesaid DNA virus'): inhibits DNA polymerase of the aforesaid DNA virus
